Experimental data: ChEMBL document CHEMBL5036343, “Discovery and development of CPL207280 as new GPR40/FFA1 agonist” (Eur J Med Chem, 2021)

Key:
Assay type in all cases: ADME, organism-based
Conditions in all cases: in vivo
[1] = Oral bioavailability in Wistar Han rat at 3 mg/kg measured after 24 hours by UPLC-MS/MS analysis
[2] = Cmax in Wistar Han rat at 3 mg/kg, po measured after 24 hours by UPLC-MS/MS analysis; design: route oral, dose 3 mg/kg, time 24 hrs
[3] = Tmax in Wistar Han rat at 3 mg/kg, po measured after 24 hours by UPLC-MS/MS analysis
[4] = Half life in Wistar Han rat at 3 mg/kg, po measured after 24 hours by UPLC-MS/MS analysis

SMILES | bioavailability [1] | Cmax [2] | Tmax [3] | half-life [4]
Cc1cc(OCCCS(C)(=O)=O)cc(C)c1-c1cccc(COc2ccc3c(c2)OC[C@H]3CC(=O)O)c1 | 36% | 1830 ng/mL | 2 h | 2.9 h
CC#C[C@@H](CC(=O)O)c1ccc(OCC(C)=C(C)C)cc1 | 65% | 1700 ng/mL | 1 h | 1.41 h
